Starred links: 1 amine or outer side, 2 acyl side, 3 side chain; linkers in the order of their positions; H or OH if unused. Positions of bridges follow the written chain, without caps; N, C: chain ends. Non-standard residues stand in square brackets, D forms with d. Residues, ends and D or L forms follow the SMILES beside them. ξ: configuration not given here. *: point of attachment. X5 = Cn1nc(C(=O)Nc2ccc(-c3ccc(C[C@H](N[*:1])C(=O)[*:2])cc3)cc2)c2ccccc21; Bip(4'-NH) = O=C([C@H](Cc1ccc(-c2ccc(N[*:3])cc2)cc1)N[*:1])[*:2]; Indazole3carbonyl(1-CH2COOH) = O=C(O)Cn1nc(C(=O)*)c2ccccc21; X54 = N=C(NCCC[C@@H](N[*:1])C(=O)[*:2])NCc1cccc(-n2ccnc2)c1; Bip(4'-COOH) = N[C@@H](Cc1ccc(-c2ccc(C(=O)O)cc2)cc1)C(=O)O; Bip(4'-NHAc) = CC(=O)Nc1ccc(-c2ccc(C[C@H](N)C(=O)O)cc2)cc1; X19 = N=C(NCCC[C@@H](N[*:1])C(=O)[*:2])NCc1ccc2ccccc2c1; X66 = N=C(NCCC[C@@H](N[*:1])C(=O)[*:2])NCc1ccc(F)c(F)c1; Ala(imidazol-2-yl) = N[C@@H](Cc1ncc[nH]1)C(=O)O; dArg(ω-Bn) = N=C(NCCC[C@@H](N)C(=O)O)NCc1ccccc1; Ala(morpholin-4-yl) = N[C@@H](CN1CCOCC1)C(=O)O; Phe(3-CONH2) = NC(=O)c1cccc(C[C@H](N)C(=O)O)c1; Bip = N[C@@H](Cc1ccc(-c2ccccc2)cc1)C(=O)O; 2Pal = N[C@@H](Cc1ccccn1)C(=O)O; 2Thi = N[C@@H](Cc1cccs1)C(=O)O; Cha = N[C@@H](CC1CCCCC1)C(=O)O; Chg = N[C@H](C(=O)O)C1CCCCC1; ξAze = O=C(O)C1CCN1; Sar = CNCC(=O)O A value given as a limit tells only on which side of the number the result lay.

The values that follow come from US20250145665A1, “MACROCYCLIC PEPTIDES USEFUL AS MODULATORS OF TNF ALPHA” (Bristol-Myers Squibb Company, priority 2023, published 2025).

Chain of TNFα (P01375 77-233 limits assumed): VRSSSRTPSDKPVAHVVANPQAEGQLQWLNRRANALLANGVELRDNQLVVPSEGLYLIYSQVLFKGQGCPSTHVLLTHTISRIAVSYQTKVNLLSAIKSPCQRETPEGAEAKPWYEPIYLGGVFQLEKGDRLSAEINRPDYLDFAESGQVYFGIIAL

The first assay concerns the target TNFα (Homo sapiens, UniProt P01375). Briefly: TNF-Induced HEK-Blue Assay. The assay is classed as cell-based.
Details: not given
What is called IC50 is the concentration that inhibits the measured activity by half. The compound `CC(=O)Nc1ccc(-c2ccc(C[C@@H]3NC(=O)[C@H](Cc4ccc(-c5ccccc5)cc4)NC(=O)[C@H](CN4CCOCC4)NC(=O)CSC[C@@H](C(=O)NCC(N)=O)NC(=O)[C@H](CC(C)C)NC(=O)[C@H](Cc4cccc(C(N)=O)c4)NC(=O)[C@H](C4CCCCC4)NC(=O)[C@@H]4CCCN4C(=O)[C@H](C(C)C)NC(=O)[C@@H](CCCNC(=N)N)NC(=O)[C@H](CC(=O)O)NC(=O)[C@H](Cc4ccc(O)cc4)NC(=O)CN(C)C3=O)cc2)cc1` [Example 460] ({CH2CO}-[Ala(morpholin-4-yl)][Bip][Bip(4'-NHAc)][Sar]YD[dR]VP[Chg][Phe(3-CONH2)]LCG-NH2; thioether N-13) displayed an IC50 of under 50 nM.

For `CC(C)C[C@@H]1NC(=O)[C@H](CCCNC(=N)N)NC(=O)[C@H](C(C)C)NC(=O)[C@@H]2CCCN2C(=O)[C@H](C(C)C)NC(=O)[C@@H](CCCNC(=N)NCc2ccccc2)NC(=O)[C@H](CC(=O)O)NC(=O)[C@@H]2CCCN2C(=O)CN(C)C(=O)[C@H](Cc2ccc(-c3ccc(NC(=O)c4nn(CC(=O)O)c5ccccc45)cc3)cc2)NC(=O)[C@H](Cc2ccc(-c3ccccc3)cc2)NC(=O)[C@H](CN2CCOCC2)NC(=O)CSC[C@@H](C(=O)NCC(N)=O)NC1=O` [Example 467] ({CH2CO}-[Ala(morpholin-4-yl)][Bip][Bip(4'-NH)](Indazole3carbonyl(1-CH2COOH))[Sar]PD[dArg(ω-Bn)]VPVRLCG-NH2; thioether N-13), the IC50 is under 50 nM. In the case of `CC(C)C[C@@H]1NC(=O)[C@H](CCCNC(=N)N)NC(=O)[C@H](C(C)C)NC(=O)[C@@H]2CCCN2C(=O)[C@H](C(C)C)NC(=O)[C@@H](CCCNC(=N)NCc2ccc3ccccc3c2)NC(=O)[C@H](CC(=O)O)NC(=O)[C@@H]2CCCN2C(=O)CN(C)C(=O)[C@H](Cc2ccc(-c3ccc(NC(=O)c4nn(CC(=O)O)c5ccccc45)cc3)cc2)NC(=O)[C@H](Cc2ccc(-c3ccccc3)cc2)NC(=O)[C@H](CN2CCOCC2)NC(=O)CSC[C@@H](C(=O)NCC(N)=O)NC1=O` [Example 468] ({CH2CO}-[Ala(morpholin-4-yl)][Bip][Bip(4'-NH)](Indazole3carbonyl(1-CH2COOH))[Sar]PD[X19]VPVRLCG-NH2; thioether N-13), the IC50 was under 50 nM. Still for that read-out and setting: the result for `CC(C)C[C@@H]1NC(=O)[C@H](CCCNC(=N)N)NC(=O)[C@H](C(C)C)NC(=O)[C@@H]2CCCN2C(=O)[C@H](C(C)C)NC(=O)[C@@H](CCCNC(=N)NCc2ccc(F)c(F)c2)NC(=O)[C@H](CC(=O)O)NC(=O)[C@@H]2CCCN2C(=O)CN(C)C(=O)[C@H](Cc2ccc(-c3ccc(NC(=O)c4nn(CC(=O)O)c5ccccc45)cc3)cc2)NC(=O)[C@H](Cc2ccc(-c3ccccc3)cc2)NC(=O)[C@H](CN2CCOCC2)NC(=O)CSC[C@@H](C(=O)NCC(N)=O)NC1=O` [Example 469] ({CH2CO}-[Ala(morpholin-4-yl)][Bip][Bip(4'-NH)](Indazole3carbonyl(1-CH2COOH))[Sar]PD[X66]VPVRLCG-NH2; thioether N-13) reads under 50 nM; that for `CC(C)C[C@@H]1NC(=O)[C@H](CCCNC(=N)N)NC(=O)[C@H](C(C)C)NC(=O)[C@@H]2CCCN2C(=O)[C@H](C(C)C)NC(=O)[C@@H](CCCNC(=N)NCc2cccc(-n3ccnc3)c2)NC(=O)[C@H](CC(=O)O)NC(=O)[C@@H]2CCCN2C(=O)CN(C)C(=O)[C@H](Cc2ccc(-c3ccc(NC(=O)c4nn(CC(=O)O)c5ccccc45)cc3)cc2)NC(=O)[C@H](Cc2ccc(-c3ccccc3)cc2)NC(=O)[C@H](CN2CCOCC2)NC(=O)CSC[C@@H](C(=O)NCC(N)=O)NC1=O` [Example 470] ({CH2CO}-[Ala(morpholin-4-yl)][Bip][Bip(4'-NH)](Indazole3carbonyl(1-CH2COOH))[Sar]PD[X54]VPVRLCG-NH2; thioether N-13), under 50 nM.

The same assay, now with this note: HEK-Blue-CD40L cells, NF-kB-driven secreted alkaline phosphatase reporter; TNFα 0.5 ng/ml; 18 h; read-out: TNF induced HEK-Blue assay IC50 value.
On to `CC(=O)Nc1ccc(-c2ccc(C[C@@H]3NC(=O)[C@H](Cc4ccc(-c5ccc(C(=O)O)cc5)cc4)NC(=O)[C@H](CN4CCOCC4)NC(=O)CSC[C@@H](C(=O)NCC(N)=O)NC(=O)[C@H](CC(C)C)NC(=O)[C@H](Cc4cccc(C(N)=O)c4)NC(=O)[C@H](C(C)C)NC(=O)[C@@H]4CCCN4C(=O)[C@H](C(C)C)NC(=O)[C@@H](CCCNC(=N)N)NC(=O)[C@H](CC(=O)O)NC(=O)[C@H](Cc4ccccc4)NC(=O)CN(C)C3=O)cc2)cc1` [Example 458] ({CH2CO}-[Ala(morpholin-4-yl)][Bip(4'-COOH)][Bip(4'-NHAc)][Sar]FD[dR]VPV[Phe(3-CONH2)]LCG-NH2; thioether N-13), for which the IC50 is under 50 nM.

Take `CC(=O)Nc1ccc(-c2ccc(C[C@@H]3NC(=O)[C@H](Cc4ccc(-c5ccccc5)cc4)NC(=O)[C@H](CN4CCOCC4)NC(=O)CSC[C@@H](C(=O)NCC(N)=O)NC(=O)[C@H](CC(C)C)NC(=O)[C@H](Cc4cccc(C(N)=O)c4)NC(=O)[C@H](C4CCCCC4)NC(=O)[C@@H]4CCCN4C(=O)[C@H](C(C)C)NC(=O)[C@@H](CCCNC(=N)N)NC(=O)[C@H](CC(=O)O)NC(=O)[C@H](Cc4ccccc4)NC(=O)CN(C)C3=O)cc2)cc1` [Example 459] ({CH2CO}-[Ala(morpholin-4-yl)][Bip][Bip(4'-NHAc)][Sar]FD[dR]VP[Chg][Phe(3-CONH2)]LCG-NH2; thioether N-13): the IC50 fell in the range of 50 to 200 nM. Consider `CC(=O)Nc1ccc(-c2ccc(C[C@@H]3NC(=O)[C@H](Cc4ccc(-c5ccccc5)cc4)NC(=O)[C@H](CN4CCOCC4)NC(=O)CSC[C@@H](C(=O)NCC(N)=O)NC(=O)[C@H](CC(C)C)NC(=O)[C@H](Cc4ncc[nH]4)NC(=O)[C@H](C(C)C)NC(=O)[C@@H]4CCCN4C(=O)[C@H](C(C)C)NC(=O)[C@@H](CCCNC(=N)N)NC(=O)[C@H](CC(=O)O)NC(=O)[C@H](Cc4cccs4)NC(=O)CN(C)C3=O)cc2)cc1` [Example 461] ({CH2CO}-[Ala(morpholin-4-yl)][Bip][Bip(4'-NHAc)][Sar][2Thi]D[dR]VPV[Ala(imidazol-2-yl)]LCG-NH2; thioether N-13), for which the IC50 is under 50 nM.

With `CC(=O)Nc1ccc(-c2ccc(C[C@@H]3NC(=O)[C@H](Cc4ccc(-c5ccc(C(=O)O)cc5)cc4)NC(=O)[C@H](CN4CCOCC4)NC(=O)CSC[C@@H](C(=O)NCC(N)=O)NC(=O)[C@H](CC(C)C)NC(=O)[C@H](Cc4ncc[nH]4)NC(=O)[C@H](C(C)C)NC(=O)[C@@H]4CCCN4C(=O)[C@H](C(C)C)NC(=O)[C@@H](CCCNC(=N)N)NC(=O)[C@H](CC(=O)O)NC(=O)[C@H](Cc4cccs4)NC(=O)CN(C)C3=O)cc2)cc1` [Example 462] ({CH2CO}-[Ala(morpholin-4-yl)][Bip(4'-COOH)][Bip(4'-NHAc)][Sar][2Thi]D[dR]VPV[Ala(imidazol-2-yl)]LCG-NH2; thioether N-13), the IC50 is under 50 nM.

For the compound `CC(=O)Nc1ccc(-c2ccc(C[C@@H]3NC(=O)[C@H](Cc4ccc(-c5ccccc5)cc4)NC(=O)[C@H](CN4CCOCC4)NC(=O)CSC[C@@H](C(=O)NCC(N)=O)NC(=O)[C@H](CC(C)C)NC(=O)[C@H](Cc4ncc[nH]4)NC(=O)[C@H](C4CCCCC4)NC(=O)[C@@H]4CCCN4C(=O)[C@H](C(C)C)NC(=O)[C@@H](CCCNC(=N)N)NC(=O)[C@H](CC(=O)O)NC(=O)[C@H](Cc4cccs4)NC(=O)CN(C)C3=O)cc2)cc1` [Example 463] ({CH2CO}-[Ala(morpholin-4-yl)][Bip][Bip(4'-NHAc)][Sar][2Thi]D[dR]VP[Chg][Ala(imidazol-2-yl)]LCG-NH2; thioether N-13), the IC50 was 50 to 200 nM. On the same count and under the same terms, the result for `CC[C@H](C)[C@@H]1NC(=O)[C@@H]2CCCN2C(=O)[C@H](C(C)C)NC(=O)[C@@H](CCCNC(=N)N)NC(=O)[C@H](CC(=O)O)NC(=O)[C@H](Cc2ccccn2)NC(=O)CN(C)C(=O)[C@H](Cc2ccc(-c3ccc(NC(C)=O)cc3)cc2)NC(=O)[C@H](Cc2ccc(-c3ccccc3)cc2)NC(=O)[C@H](CN2CCOCC2)NC(=O)CSC[C@@H](C(=O)NCC(N)=O)NC(=O)[C@H](CC(C)C)NC(=O)[C@H](Cc2ncc[nH]2)NC1=O` [Example 464] ({CH2CO}-[Ala(morpholin-4-yl)][Bip][Bip(4'-NHAc)][Sar][2Pal]D[dR]VPI[Ala(imidazol-2-yl)]LCG-NH2; thioether N-13) reads under 50 nM. The same measure, in the same setting: the result for `CC(=O)Nc1ccc(-c2ccc(C[C@@H]3NC(=O)[C@H](Cc4ccc(-c5ccccc5)cc4)NC(=O)[C@H](CC4CCCCC4)NC(=O)CSC[C@@H](C(=O)NCC(N)=O)NC(=O)[C@H](CC(C)C)NC(=O)[C@H](Cc4ncc[nH]4)NC(=O)[C@H](C(C)C)NC(=O)C4CCN4C(=O)[C@H](C(C)C)NC(=O)[C@@H](CCCNC(=N)N)NC(=O)[C@H](CC(=O)O)NC(=O)[C@@H]4CCCN4C(=O)CN(C)C3=O)cc2)cc1` (some centres unmarked) [Example 466] ({CH2CO}-[Cha][Bip][Bip(4'-NHAc)][Sar]PD[dR]V[ξAze]V[Ala(imidazol-2-yl)]LCG-NH2; thioether N-13) reads under 50 nM. Consider `CC(C)C[C@@H]1NC(=O)[C@H](CCCNC(=N)N)NC(=O)[C@H](C(C)C)NC(=O)[C@@H]2CCCN2C(=O)[C@H](C(C)C)NC(=O)[C@@H](CCCNC(=N)NCc2ccccc2)NC(=O)[C@H](CC(=O)O)NC(=O)[C@@H]2CCCN2C(=O)CN(C)C(=O)[C@H](Cc2ccc(-c3ccc(NC(=O)c4nn(C)c5ccccc45)cc3)cc2)NC(=O)[C@H](Cc2ccc(-c3ccccc3)cc2)NC(=O)[C@H](CN2CCOCC2)NC(=O)CSC[C@@H](C(=O)NCC(N)=O)NC1=O` [Example 471] ({CH2CO}-[Ala(morpholin-4-yl)][Bip][X5][Sar]PD[dArg(ω-Bn)]VPVRLCG-NH2; thioether N-13), for which the IC50 is under 50 nM. In the case of `CC(C)C[C@@H]1NC(=O)[C@H](CCCNC(=N)N)NC(=O)[C@H](C(C)C)NC(=O)[C@@H]2CCCN2C(=O)[C@H](C(C)C)NC(=O)[C@@H](CCCNC(=N)NCc2ccc3ccccc3c2)NC(=O)[C@H](CC(=O)O)NC(=O)[C@@H]2CCCN2C(=O)CN(C)C(=O)[C@H](Cc2ccc(-c3ccc(NC(=O)c4nn(C)c5ccccc45)cc3)cc2)NC(=O)[C@H](Cc2ccc(-c3ccccc3)cc2)NC(=O)[C@H](CN2CCOCC2)NC(=O)CSC[C@@H](C(=O)NCC(N)=O)NC1=O` [Example 472] ({CH2CO}-[Ala(morpholin-4-yl)][Bip][X5][Sar]PD[X19]VPVRLCG-NH2; thioether N-13), the IC50 fell in the range of 50 to 200 nM.
